Molecular target: T1, CCR3 (Homo sapiens, UniProt P51677)
T1 sequence (P51677 1-355): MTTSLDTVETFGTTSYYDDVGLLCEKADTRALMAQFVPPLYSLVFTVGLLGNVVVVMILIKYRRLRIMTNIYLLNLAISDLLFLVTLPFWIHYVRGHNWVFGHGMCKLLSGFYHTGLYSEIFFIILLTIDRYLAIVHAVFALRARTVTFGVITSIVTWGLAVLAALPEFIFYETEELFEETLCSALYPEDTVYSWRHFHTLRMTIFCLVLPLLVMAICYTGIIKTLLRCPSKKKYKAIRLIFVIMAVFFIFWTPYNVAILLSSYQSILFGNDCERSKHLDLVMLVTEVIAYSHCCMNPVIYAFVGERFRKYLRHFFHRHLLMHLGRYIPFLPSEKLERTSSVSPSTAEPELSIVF
Assay: CCR3 receptor binding assay ([125I]-labeled human eotaxin/CCL11 displacement on cells)
Settings: 0.1 nM [125I]-labeled human eotaxin/CCL11, 2×10^5 cells/well, 60 min at room temperature
Protocol: CCR3 Receptor Binding Assay
Cells were washed once with PBS and resuspended in a binding buffer (25 mM HEPES pH 7.6, 5 mM MgCl2, 1 mM CaCl2, 0.5% BSA, 0.1% NaN3). […] of cell suspension (2×10^5 cells/well) and 0.1 nM [^125I]-labeled human eotaxin/CCL11 (2000 Ci/mmol specific activity) were mixed in a 96-well U-bottom polypropylene plate, and incubated for 60 min at room temperature for the binding reaction. The cell suspension was then transferred to a filtration plate (#MAFB, Millipore), and washed 3 times with the binding buffer containing 0.5 M NaCl, scintillant added, and the radioactivity was counted on a TopCount (Packard). For the determination of non-specific binding, the cell suspension and [^125I]-labeled human eotaxin/CCL11 were incubated in the presence of 500 nM of unlabeled human eotaxin/CCL11. See, lino et al., “Molecular cloning and functional characterization of cynomolgus monkey (Macaca fascicularis) CC chemokine receptor, CCR3,” Cytokine 2002, 19, 276-286.

Row | SMILES | Ki [µM]
1 | CCc1ccc(NC(=O)N2CCN(S(=O)(=O)c3cc(C#N)ccc3Oc3cc(C)cc(C)c3)CC2)cc1 [Compound 62, 4-(5-Cyano-2-(3,5-dimethylphenoxy)phenylsulfonyl)-N-(4-ethylphenyl)piperazine-1-carboxamide] | > 5
2 | Cc1cc(C)cc(Sc2ccc(C#N)cc2S(=O)(=O)N2CCN(C(=O)c3ccc(C(F)(F)F)cc3)CC2)c1 [Compound 88, 4-(3,5-Dimethylphenylthio)-3-(4-(4-(trifluoromethyl)benzoyl)piperazin-1-ylsulfonyl)benzonitrile] | > 5
3 | COc1ccc(C(=O)N2CCN(S(=O)(=O)c3cc([N+](=O)[O-])ccc3Sc3cc(C)ccc3C)CC2)cc1 [Compound 174, (4-(2-(2,5-Dimethylphenylthio)-5-nitrophenylsulfonyl)piperazin-1-yl)(4-methoxyphenyl)methanone] | > 5
4 | O=C(c1ccc(C(F)(F)F)cc1)N1CCN(S(=O)(=O)c2cc([N+](=O)[O-])ccc2Sc2cc(Cl)ccc2Cl)CC1 [Compound 153, (4-(2-(2,5-Dichlorophenylthio)-5-nitrophenylsulfonyl)piperazin-1-yl)(4-(trifluoromethyl)phenyl)methanone] | > 5
5 | O=C(Nc1ccc([N+](=O)[O-])cc1)N1CCN(S(=O)(=O)c2cc([N+](=O)[O-])ccc2Sc2cc(Cl)ccc2Cl)CC1 [Compound 195, 4-(2-(2,5-Dichlorophenylthio)-5-nitrophenylsulfonyl)-N-(4-nitrophenyl)-piperazine-1-carboxamide] | > 5
6 | C=CCOC(=O)N1CCN(S(=O)(=O)c2cc(C#N)ccc2Oc2cc(Cl)cc(Cl)c2)CC1 [Compound 159] | > 5
7 | Cc1cc(C)cc(Oc2ccc(C#N)cc2S(=O)(=O)N2CCN(C(=O)Nc3cccc(F)c3)CC2)c1 [Compound 61, 4-(5-Cyano-2-(3,5-dimethylphenoxy)phenylsulfonyl)-N-(3-fluorophenyl)piperazine-1-carboxamide] | > 5
8 | N#Cc1ccc(Oc2cc(Cl)cc(Cl)c2)c(S(=O)(=O)N2CCN(C(=O)c3ccc(C(F)(F)F)cc3)CC2)c1 [Compound 69, 4-(3,5-Dichlorophenoxy)-3-(4-(4-(trifluoromethyl)benzoyl)piperazin-1-ylsulfonyl)benzonitrile] | > 5
9 | COc1ccc(OC(=O)N2CCN(S(=O)(=O)c3cc(C#N)ccc3Oc3cc(Cl)cc(Cl)c3)CC2)cc1 [Compound 156] | > 5
10 | N#Cc1ccc(Oc2cc(Cl)cc(Cl)c2)c(S(=O)(=O)N2CCN(C(=S)NCc3cccc(Cl)c3)CC2)c1 [Compound 149] | > 5
11 | COc1ccc(NC(=O)N2CCN(S(=O)(=O)c3cc(C#N)ccc3Oc3cc(C)cc(C)c3)CC2)cc1 [Compound 118] | > 5
12 | COc1ccc(C(=O)N2CCN(S(=O)(=O)c3cc([N+](=O)[O-])ccc3Sc3cc(Cl)ccc3Cl)CC2)cc1 [Compound 165, (4-Methoxyphenyl)(4-(2-(2,5-dichlorophenylthio)-5-nitrophenylsulfonyl)-piperazin-1-yl)methanone] | > 5
13 | Cc1cc(C)cc(Sc2ccc(C#N)cc2S(=O)(=O)N2CCN(C(=O)c3ccccc3C)CC2)c1 [Compound 92, 4-(3,5-Dimethylphenylthio)-3-(4-(2-methylbenzoyl)piperazin-1-ylsulfonyl)benzonitrile] | > 5
14 | N#Cc1ccc(Oc2cc(Cl)cc(Cl)c2)c(S(=O)(=O)N2CCN(C(=O)c3ccc(F)cc3)CC2)c1 [Compound 87, 4-(3,5-Dichlorophenoxy)-3-(4-(4-fluorobenzoyl)piperazin-1-ylsulfonyl)benzonitrile] | > 5
15 | N#Cc1ccc(Sc2cc(Cl)cc(Cl)c2)c(S(=O)(=O)N2CCN(C(=O)c3ccccc3)CC2)c1 [Compound 99] | > 5
16 | Cc1cc(C)cc(Oc2ccc(C#N)cc2S(=O)(=O)N2CCN(S(=O)(=O)CC34CCC(CC3=O)C4(C)C)CC2)c1 (stereo not shown) [Compound 51] | > 5

Other lines, results leading:

Row | Ki [µM] | SMILES
17 | > 5 | Cc1ccc(OC(=O)N2CCN(S(=O)(=O)c3cc(C#N)ccc3Oc3cc(Cl)cc(Cl)c3)CC2)cc1 [Compound 157]
18 | > 5 | N#Cc1ccc(Oc2cc(Cl)cc(Cl)c2)c(S(=O)(=O)N2CCN(C(=O)c3nc4ccccc4s3)CC2)c1 [Compound 132]
19 | 0.5 to 5 | N#Cc1ccc(Oc2cc(Cl)cc(Cl)c2)c(S(=O)(=O)N2CCN(C(=O)c3ccccc3F)CC2)c1 [Compound 85, 4-(3,5-Dichlorophenoxy)-3-(4-(2-fluorobenzoyl)piperazin-1-ylsulfonyl)benzonitrile]
20 | ≤ 0.05 | Cc1ccc(S(=O)(=O)N2CCN(S(=O)(=O)c3cc(C#N)ccc3Oc3cc(Cl)cc(Cl)c3)CC2)cc1 [Compound 77, 4-(3,5-Dichlorophenoxy)-3-(4-tosylpiperazin-1-ylsulfonyl)benzonitrile]
21 | ≤ 0.05 | N#Cc1ccc(Oc2cc(Cl)cc(Cl)c2)c(S(=O)(=O)N2CCN(C(=S)Nc3ccccc3)CC2)c1 [Compound 144]
22 | 0.05 to 0.5 | Cc1cc(C)cc(Sc2ccc(C#N)cc2S(=O)(=O)N2CCN(C(=O)c3cccc(C)c3)CC2)c1 [Compound 91, 4-(3,5-Dimethylphenylthio)-3-(4-(3-methylbenzoyl)piperazin-1-ylsulfonyl)benzonitrile]
23 | ≤ 0.05 | N#Cc1ccc(Oc2cc(Cl)cc(Cl)c2)c(S(=O)(=O)N2CCN(C(=O)c3ccccc3)CC2)c1 [Compound 70, 3-(4-Benzoylpiperazin-1-ylsulfonyl)-4-(3,5-dichlorophenoxy)benzonitrile]
24 | 0.5 to 5 | CCC(=O)N1CCN(S(=O)(=O)c2cc(C#N)ccc2Oc2cc(C)cc(C)c2)CC1 [Compound 57, 4-(3,5-dimethylphenoxy)-3-(4-propionylpiperazin-1-ylsulfonyl)benzonitrile]
25 | 0.05 to 0.5 | CC(C)NC(=S)N1CCN(S(=O)(=O)c2cc(C#N)ccc2Oc2cc(Cl)cc(Cl)c2)CC1 [Compound 95]
26 | 0.05 to 0.5 | Cc1cc(C)cc(Sc2ccc(C#N)cc2S(=O)(=O)N2CCN(C(=O)Nc3cccc(F)c3)CC2)c1 [Compound 93]
27 | ≤ 0.05 | CSCCCNC(=S)N1CCN(S(=O)(=O)c2cc(C#N)ccc2Oc2cc(Cl)cc(Cl)c2)CC1 [Compound 146]
28 | ≤ 0.05 | N#Cc1ccc(Oc2cc(Cl)cc(Cl)c2)c(S(=O)(=O)N2CCN(C(=O)NCc3ccco3)CC2)c1 [Compound 135]
29 | ≤ 0.05 | C=CCNC(=O)N1CCN(S(=O)(=O)c2cc([N+](=O)[O-])ccc2Sc2cc(Cl)ccc2Cl)CC1 [Compound 191, N-Allyl-4-(2-(2,5-dichlorophenylthio)-5-nitrophenylsulfonyl)piperazine-1-carboxamide]
30 | 0.5 to 5 | Cc1ccccc1C(=O)N1CCN(S(=O)(=O)c2cc(C#N)ccc2Oc2cc(Cl)cc(Cl)c2)CC1 [Compound 83, 4-(3,5-Dichlorophenoxy)-3-(4-(2-methylbenzoyl)piperazin-1-ylsulfonyl)benzonitrile]
31 | 0.5 to 5 | N#Cc1ccc(Oc2cc(Cl)cc(Cl)c2)c(S(=O)(=O)N2CCN(C(=O)c3ccccn3)CC2)c1 [Compound 128]
32 | ≤ 0.05 | Cc1nnsc1C(=O)N1CCN(S(=O)(=O)c2cc(C#N)ccc2Sc2cc(Cl)cc(Cl)c2)CC1 [Compound 139]
33 | 0.05 to 0.5 | N#Cc1ccc(Oc2cc(Cl)cc(Cl)c2)c(S(=O)(=O)N2CCN(C(=S)NCCN3CCOCC3)CC2)c1 [Compound 137]
34 | 0.05 to 0.5 | N#Cc1ccc(Oc2cc(Cl)cc(Cl)c2)c(S(=O)(=O)N2CCN(C(=O)c3ccno3)CC2)c1 [Compound 124]
